In patent US20230102554A1 (GB002, INC., priority 2019, published 2023):

Tests used:
[1] = biological target: T1, Human PDGFRα, cytoplasmic domain (GST-PDGFRα) (Homo sapiens, UniProt P16234); experiment: Human PDGFRα biochemical inhibition assay (off-chip Mobility Shift Assay)
T1 construct: made in house

[2] = biological target: T2, Human PDGFRβ, cytoplasmic domain (GST-PDGFRβ) (Homo sapiens, UniProt P09619); experiment: Human PDGFRβ biochemical inhibition assay (off-chip Mobility Shift Assay)
T2 construct: made in house
T2 sequence (P09619 with tags, fused parts or gaps): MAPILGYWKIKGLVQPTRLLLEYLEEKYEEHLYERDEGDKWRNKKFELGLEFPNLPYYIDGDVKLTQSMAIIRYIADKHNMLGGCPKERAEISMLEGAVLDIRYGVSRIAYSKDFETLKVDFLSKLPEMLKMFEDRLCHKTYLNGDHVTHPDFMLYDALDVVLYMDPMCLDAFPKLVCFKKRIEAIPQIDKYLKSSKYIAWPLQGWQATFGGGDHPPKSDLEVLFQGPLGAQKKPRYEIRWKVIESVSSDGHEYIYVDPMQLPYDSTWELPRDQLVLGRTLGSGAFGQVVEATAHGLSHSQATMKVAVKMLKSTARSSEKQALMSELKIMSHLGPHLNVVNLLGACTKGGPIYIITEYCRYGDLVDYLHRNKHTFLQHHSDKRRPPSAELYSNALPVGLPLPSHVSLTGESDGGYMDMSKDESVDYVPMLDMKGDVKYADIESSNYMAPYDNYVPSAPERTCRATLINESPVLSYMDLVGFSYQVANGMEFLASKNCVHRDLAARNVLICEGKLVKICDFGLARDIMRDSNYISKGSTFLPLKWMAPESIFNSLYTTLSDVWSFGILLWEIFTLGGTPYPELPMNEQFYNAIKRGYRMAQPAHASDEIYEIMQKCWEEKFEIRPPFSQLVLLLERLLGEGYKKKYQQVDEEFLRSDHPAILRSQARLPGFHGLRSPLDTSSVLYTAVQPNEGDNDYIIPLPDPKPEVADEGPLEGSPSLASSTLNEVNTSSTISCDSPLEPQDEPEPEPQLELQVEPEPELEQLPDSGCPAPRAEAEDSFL
Summary of the method: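 GST-tagged cytoplasmic domain (aa 557-1106) from baculovirus was incubated 1 h at room temperature with compound, CSKtide, ATP at Km and Mg²⁺ in HEPES buffer, pH 7.5. Phosphorylated and unphosphorylated peptide were separated by off-chip mobility shift, and the product ratio P/(P+S) gave percent inhibition.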

T1 sequence (P16234 550-1089 T674I): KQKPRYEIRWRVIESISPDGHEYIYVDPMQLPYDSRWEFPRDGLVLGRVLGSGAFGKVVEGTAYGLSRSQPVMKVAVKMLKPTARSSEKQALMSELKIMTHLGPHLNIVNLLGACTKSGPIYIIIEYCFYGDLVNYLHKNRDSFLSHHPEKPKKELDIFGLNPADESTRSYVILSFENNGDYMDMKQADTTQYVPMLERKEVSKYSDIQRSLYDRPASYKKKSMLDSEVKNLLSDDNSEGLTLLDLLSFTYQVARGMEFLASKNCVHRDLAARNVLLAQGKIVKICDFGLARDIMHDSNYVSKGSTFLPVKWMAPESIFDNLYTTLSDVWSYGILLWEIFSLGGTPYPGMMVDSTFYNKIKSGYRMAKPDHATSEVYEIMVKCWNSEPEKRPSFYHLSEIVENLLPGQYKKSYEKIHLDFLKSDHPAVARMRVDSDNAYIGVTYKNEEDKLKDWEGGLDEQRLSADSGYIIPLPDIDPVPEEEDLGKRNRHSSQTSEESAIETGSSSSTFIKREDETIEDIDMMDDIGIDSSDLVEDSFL

SMILES	IC50 [1] [nM]	IC50 [2] [nM]
CCn1cc2ncc(N[C@@H](C)c3cccc(NC(=O)c4ccc(F)c(Cl)c4)c3)nc2n1 [Compound 343, (S)-3-chloro-N-(3-(1-((2-ethyl-2H-pyrazolo[3,4-b]pyrazin-6-yl)amino)ethyl)phenyl)-4-fluorobenzamide]	< 300	< 300
CCn1cc2ncc(N[C@@H](C)c3cccc(NC(=O)c4cnc(N5CCOCC5)s4)c3)nc2n1 [Compound 339, (S)-N-(3-(1-((2-ethyl-2H-pyrazolo[3,4-b]pyrazin-6-yl)amino)ethyl)phenyl)-2-morpholinothiazole-5-carboxamide]	< 300	300 to 1000
Cc1cncc(NC(=O)Nc2cccc([C@H](C)Nc3cnc4cnn(C)c4n3)c2)c1 [Compound 731, (S)-1-(3-(1-((1-methyl-1H-pyrazolo[3,4-b]pyrazin-6-yl)amino)ethyl)phenyl)-3-(5-methylpyridin-3-yl)urea]	< 300	< 300
C[C@H](Nc1cnc2cnn(C)c2n1)c1cccc(NC(=O)c2cnn(C3CC3)c2)c1 [Compound 150, (S)-1-cyclopropyl-N-(3-(1-((1-methyl-1H-pyrazolo[3,4-b]pyrazin-6-yl)amino)ethyl)phenyl)-1H-pyrazole-4-carboxamide]	< 300	< 300
CCn1cc2ncc(N[C@@H](C)c3cccc(NC(=O)Cc4ccccn4)c3)nc2n1 [Compound 645, (S)-N-(3-(1-((2-ethyl-2H-pyrazolo[3,4-b]pyrazin-6-yl)amino)ethyl)phenyl)-2-(pyridin-2-yl)acetamide]	300 to 1000	≥ 1000
CCn1cc2ncc(N[C@@H](C)c3cccc(NC(=O)c4ccc(N5CCOCC5)c(F)c4)c3)nc2n1 [Compound 366, (S)-N-(3-(1-((2-ethyl-2H-pyrazolo[3,4-b]pyrazin-6-yl)amino)ethyl)phenyl)-3-fluoro-4-morpholinobenzamide]	< 300	< 300
C[C@H](Nc1cnc2cnn(C)c2n1)c1cccc(NC(=O)c2ccc(S(C)(=O)=O)cc2)c1 [Compound 220, (S)-N-(3-(1-((1-methyl-1H-pyrazolo[3,4-b]pyrazin-6-yl)amino)ethyl)phenyl)-4-(methylsulfonyl)benzamide]	< 300	300 to 1000
CCn1cc2ncc(N[C@@H](C)c3cccc(NC(=O)c4ccc(C(F)(F)F)cc4)c3)nc2n1 [Compound 453, (S)-N-(3-(1-((2-ethyl-2H-pyrazolo[3,4-b]pyrazin-6-yl)amino)ethyl)phenyl)-4-(trifluoromethyl)benzamide]	< 300	< 300
CCn1cc2ncc(N[C@@H](C)c3cc(NC(=O)Cc4ccc(F)cc4)ccc3C)nc2n1 [Compound 701, (S)-N-(3-(1-((2-ethyl-2H-pyrazolo[3,4-b]pyrazin-6-yl)amino)ethyl)-4-methylphenyl)-2-(4-fluorophenyl)acetamide]	< 300	< 300
Cc1cncc(C(=O)Nc2cccc([C@H](C)Nc3cnn4ccc(-c5cnn(C)c5)cc34)c2)c1 [Compound 745, (S)-5-methyl-N-(3-(1-((5-(1-methyl-1H-pyrazol-4-yl)pyrazolo[1,5-a]pyridin-3-yl)amino)ethyl)phenyl) nicotinamide]	≥ 1000	≥ 1000
CCn1cc2ncc(N[C@@H](C)c3cccc(NC(=O)c4ccc(CN5CCCC5)c(C)c4)c3)nc2n1 [Compound 404, (S)-N-(3-(1-((2-ethyl-2H-pyrazolo[3,4-b]pyrazin-6-yl)amino)ethyl)phenyl)-3-methyl-4-(pyrrolidin-1-ylmethyl) benzamide]	< 300	< 300
C[C@H](Nc1cnc2cnn(C)c2n1)c1cccc(NC(=O)c2cnn(CC3CC3)c2)c1 [Compound 152, (S)-1-(cyclopropylmethyl)-N-(3-(1-((1-methyl-1H-pyrazolo[3,4-b]pyrazin-6-yl)amino)ethyl)phenyl)-1H-pyrazole-4-carboxamide]	< 300	< 300
CCc1cc(C(=O)Nc2cccc([C@H](C)Nc3cnc4cn(CC)nc4n3)c2)ccc1CN1CC2(COC2)C1 [Compound 499, (S)-4-((2-oxa-6-azaspiro[3,3]heptan-6-yl)methyl)-3-ethyl-N-(3-(1-((2-ethyl-2H-pyrazolo[3,4-b]pyrazin-6-yl)amino)ethyl)phenyl)benzamide]	< 300	< 300
Cc1cc2ncc(N[C@@H](C)c3cc(NC(=O)c4ccc(C(F)(F)F)nc4)ccc3F)nc2o1 [Compound 614, (S)-N-(4-fluoro-3-(1-((6-methylfuro[2,3-b]pyrazin-3-yl)amino)ethyl)phenyl)-6-(trifluoromethyl)nicotinamide]	< 300	< 300
CCn1cc2ncc(N[C@@H](C)c3cccc(NC(=O)Cc4cccc(F)c4)c3)nc2n1 [Compound 625, (S)-N-(3-(1-((2-ethyl-2H-pyrazolo[3,4-b]pyrazin-6-yl)amino)ethyl)phenyl)-2-(3-fluorophenyl)acetamide]	< 300	300 to 1000
CCn1cc2ncc(N[C@@H](C)c3cc(NC(=O)Cc4ccc(C(C)(C)F)cn4)ccc3F)nc2n1 [Compound 683, (S)-N-(3-(1-((2-ethyl-2H-pyrazolo[3,4-b]pyrazin-6-yl)amino)ethyl)-4-fluorophenyl)-2-(5-(2-fluoropropan-2-yl)pyridin-2-yl)acetamide]	300 to 1000	≥ 1000
CC(C)n1cc(C(=O)Nc2cccc([C@H](C)Nc3cnc4[nH]cc(-c5cnn(C)c5)c4n3)c2)cn1 [Compound 588, (S)-1-isopropyl-N-(3-(1-((7-(1-methyl-1H-pyrazol-4-yl)-5H-pyrrolo[2,3-b]pyrazin-2-yl)amino)ethyl)phenyl)-1H-pyrazole-4-carboxamide]	< 300	< 300
CCn1cc2ncc(N[C@@H](C)c3cccc(NC(=O)Cc4ccc(F)c(F)c4)c3)nc2n1 [Compound 648, (S)-2-(3,4-difluorophenyl)-N-(3-(1-((2-ethyl-2H-pyrazolo[3,4-b]pyrazin-6-yl)amino)ethyl)phenyl)acetamide]	< 300	< 300
CCn1cc(C(=O)Nc2ccc(F)c([C@H](C)Nc3cnc4cn(CC)nc4n3)c2)cn1 [Compound 310, (S)-1-ethyl-N-(3-(1-((2-ethyl-2H-pyrazolo[3,4-b]pyrazin-6-yl)amino)ethyl)-4-fluorophenyl)-1H-pyrazole-4-carboxamide]	< 300	< 300
CCn1cc2ncc(N[C@@H](C)c3cccc(NC(=O)c4cnc(C5CC5)c(C)c4)c3)nc2n1 [Compound 321, (S)-6-cyclopropyl-N-(3-(1-((2-ethyl-2H-pyrazolo[3,4-b]pyrazin-6-yl)amino)ethyl)phenyl)-5-methylnicotinamide]	< 300	< 300
Cc1cncc(NC(=O)c2cccc([C@H](C)Nc3cnc4cnn(C)c4n3)c2)c1 [Compound 744, (S)-3-(1-((1-methyl-H-pyrazolo[3,4-b]pyrazin-6-yl)amino)ethyl)-N-(5-methylpyridin-3-yl)benzamide]	< 300	≥ 1000
C[C@H](Nc1cnc2cnn(C)c2n1)c1cccc(NC(=O)Nc2ccccc2)c1 [Compound 729, (S)-1-(3-(1-((1-methyl-1H-pyrazolo[3,4]pyrazin-6-yl)amino)ethyl)phenyl)-3-phenylurea]	< 300	< 300
CCn1cc2ncc(N[C@@H](C)c3cccc(NC(=O)c4ccc5c(c4)CCNC5)c3)nc2n1 [Compound 66, (S)-N-(3-(1-((2-ethyl-2H-pyrazolo[3,4-b]pyrazin-6-yl)amino)ethyl)phenyl)-1,2,3,4-tetrahydroisoquinoline-6-carboxamide]	< 300	300 to 1000
CCn1cc2ncc(N[C@@H](C)c3cccc(NC(=O)Nc4ccc(C(F)(F)F)nc4)c3)nc2n1 [Compound 736, (S)-1-(3-(1-((2-ethyl-2H-pyrazolo[3,4-b]pyrazin-6-yl)amino)ethyl)phenyl)-3-(6-(trifluoromethyl)pyridin-3-yl) urea]	< 300	< 300
CCn1cc2ncc(N[C@@H](C)c3cccc(NC(=O)Nc4cnn(C(C)C)c4)c3)nc2n1 [Compound 733, (S)-1-(3-(1-((2-ethyl-2H-pyrazolo[3,4-b]pyrazin-6-yl)amino)ethyl)phenyl)-3-(1-isopropyl-1H-pyrazol-4-yl)urea]	< 300	300 to 1000
CCn1cc2ncc(N[C@@H](C)c3cccc(NC(=O)c4ccc(C(F)(F)F)c(Cl)c4)c3)nc2n1 [Compound 438, (S)-3-chloro-N-(3-(1-((2-ethyl-2H-pyrazolo[3,4-b]pyrazin-6-yl)amino)ethyl)phenyl)-4-(trifluoromethyl)benzamide]	< 300	< 300
CCn1cc2ncc(N[C@@H](C)c3cccc(NC(=O)c4cnc5cnn(C)c5c4)c3)nc2n1 [Compound 62, (S)-N-(3-(1-((2-ethyl-2H-pyrazolo[3,4-b]pyrazin-6-yl)amino)ethyl)phenyl)-1-methyl-1H-pyrazolo[4,3-b]pyridine-6-carboxamide]	300 to 1000	≥ 1000
C[C@H](Nc1cnc2cnn(C)c2n1)c1cccc(NC(=O)c2cnc(C(F)(F)F)s2)c1 [Compound 139, (S)-N-(3-(1-((1-methyl-1H-pyrazolo[3,4-b]pyrazin-6-yl)amino)ethyl)phenyl)-2-(trifluoromethyl)thiazole-5-carboxamide]	< 300	< 300
CCn1cc2ncc(N[C@@H](C)c3cc(NC(=O)Cc4ccc5c(n4)OCCC5)ccc3C)nc2n1 [Compound 721, (S)-2-(3,4-dihydro-2H-pyrano[2,3-b]pyridin-7-yl)N-(3-(1-((2-ethyl-2H-pyrazolo[3,4-b]pyrazin-6-yl)amino)ethyl)-4-methylphenyl)acetamide]	< 300	≥ 1000
COC(=O)c1ccc(C(=O)Nc2cccc([C@H](C)Nc3cnc4cnn(C)c4n3)c2)cc1C [Compound 199, methyl (S)-2-methyl-4-((3-(1-((1-methyl-1H-pyrazolo[3,4-b]pyrazin-6-yl)amino)ethyl)phenyl)carbamoyl)benzoate]	< 300	< 300
